US20250339569A1, “CARBONIC ANHYDRASE IX LIGANDS” (priority 2021, published 2025)
Read-outs that look alike come from different tables or passages of the source. Starred links: 1 amine or outer side, 2 acyl side, 3 side chain; linkers in the order of their positions; H or OH if unused. Positions of bridges follow the written chain, without caps; N, C: chain ends. Non-standard residues stand in square brackets, D forms with d. Residues, ends and D or L forms follow the SMILES beside them. *: point of attachment. Phe(3-NHCO(CH2)3SO2NH2) = N[C@@H](Cc1cccc(NC(=O)CCCS(N)(=O)=O)c1)C(=O)O; X25 = CC(=O)N[C@H](CCC(=O)O)C(=O)Nc1cccc(C[C@@H](N[*:1])C(=O)[*:2])c1; X11 = NS(=O)(=O)c1ccc(C(=O)Nc2cccc(C[C@H](N[*:1])C(=O)[*:2])c2)s1; DOTA = O=C(O)CN1CCN(CC(=O)O)CCN(CC(=O)*)CCN(CC(=O)O)CC1; X15 = O=C(O)COCC(=O)Nc1cccc(C[C@H](N[*:1])C(=O)[*:2])c1; Propanoyl(3-SO2NH2) = NS(=O)(=O)CCC(=O)*; Phe(4-NH2) = Nc1ccc(C[C@H](N)C(=O)O)cc1; mXylylene = c1cc(C[*:1])cc(C[*:2])c1; dOrn(Me2) = CN(C)CCC[C@@H](N)C(=O)O; NH(4-Cl-benzyl) = Clc1ccc(CN*)cc1; Orn(Me2) = CN(C)CCC[C@H](N)C(=O)O; X2 = O=C(CN1CCC(N[*:1])CC1)[*:2]; X1 = O=C(CN1CCN([*:1])CC1)[*:2]; X39 = NS(=O)(=O)c1ccc(N*)cc1; Dap = NC[C@H](N)C(=O)O

What was measured:
[1] = biological target: T1, CAIX-expressing human HT-29 colorectal cancer cells (Homo sapiens, UniProt Q16790); test: FACS binding assay (IC50 determination, competition with tracer 3BP-2776 or 3BP-4149); conditions: FACS binding assay, HT-29 cells, 4° C., 1 hour, read-out: pIC50 category (activity) (converted)
T1 construct: CAIX-expressing human HT-29 colorectal cancer cells; host or cells: HT-29 human colorectal cancer cells
Summary of the method: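 HT-29 cells in FACS buffer (PBS, 1% FCS) at 500.000 cells/ml were exposed to compounds competing with a labelled tracer, with biotinylated compounds detected by 1 μg/mL APC-streptavidin for 30 min on ice. APC/Cy5 median fluorescence was read by flow cytometry and IC50 derived by 4PL fit.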

[2] = biological target: T2, human carbonic anhydrase IX (hCAIX-Fc) (Homo sapiens, UniProt Q16790); test: Surface plasmon resonance assay with hCAIX-Fc; format: binding; conditions: 25° C.; for t1/2 category (activity): SPR dissociation half-life, hCAIX-Fc; for Kd: SPR, hCAIX-Fc captured, read-out: pKD category (activity) (converted)
T2 construct: purchased SinoBliological (Sino Biological) 10107-H02H

[3] = competition with tracer 3BP-2776 (10 nM, biotin-labeled)
[4] = competition with tracer 3BP-4149 (3 nM, Cy5-labeled)

SMILES	IC50 [1, 3]	t1/2 category (activity) [2]	Kd [2]	IC50 [1, 4]
CC(=O)N[C@H](CCC(=O)O)C(=O)Nc1cccc(C[C@H]2NC(=O)[C@H](CC(=O)O)NC(=O)[C@H]3CCCN3C(=O)[C@H](CCC(=O)O)NC(=O)[C@@H](NC(=O)[C@H](Cc3ccc(O)cc3)NC(=O)[C@@H](NC(=O)CN3CCC(NC(=O)CN4CCN(CC(=O)O)CCN(CC(=O)O)CCN(CC(=O)O)CC4)CC3)C(C)C)CSCc3cccc(c3)CSC[C@@H](C(N)=O)NC(=O)[C@H](CO)NC(=O)[C@H](Cc3c[nH]c4ccccc34)NC(=O)[C@H]([C@@H](C)O)NC(=O)[C@H](CC(C)C)NC2=O)c1 [3BP-4362] ({DOTA}-[X2]VYCE[dP]D[X25]LTWSC-NH2; linker 4-13 via mXylylene)	–	B (t1/2 between 5.1 and 15.0 minutes)	< 10 nM	10 to 79.4 nM
CC(C)C[C@@H]1NC(=O)[C@H](Cc2c[nH]c3ccccc23)NC(=O)[C@H](CC(=O)O)NC(=O)[C@@H](CCCN(C)C)NC(=O)[C@H](CCC(=O)O)NC(=O)[C@@H](NC(=O)[C@H](Cc2ccc(O)cc2)NC(=O)[C@@H](NC(=O)CN2CCC(NC(=O)CN3CCN(CC(=O)O)CCN(CC(=O)O)CCN(CC(=O)O)CC3)CC2)C(C)C)CSCc2cccc(c2)CSC[C@@H](C(N)=O)NC(=O)[C@H](CO)NC(=O)[C@H](Cc2c[nH]c3ccccc23)NC(=O)[C@H]([C@@H](C)O)NC1=O [3BP-4097] ({DOTA}-[X2]VYCE[dOrn(Me2)]DWLTWSC-NH2; linker 4-13 via mXylylene)	< 10 nM	–	< 10 nM	–
CC(C)C[C@@H]1NC(=O)[C@H](Cc2c[nH]c3ccccc23)NC(=O)[C@H](CCC(=O)NCc2ccc(Cl)cc2)NC(=O)[C@H]2CCCN2C(=O)[C@H](CCC(=O)O)NC(=O)[C@@H](NC(=O)[C@H](Cc2ccc(O)cc2)NC(=O)[C@@H](NC(=O)CN2CCC(NC(=O)CN3CCN(CC(=O)O)CCN(CC(=O)O)CCN(CC(=O)O)CC3)CC2)C(C)C)CSCc2cccc(c2)CSC[C@@H](C(N)=O)NC(=O)[C@H](CO)NC(=O)[C@H](Cc2c[nH]c3ccccc23)NC(=O)[C@H]([C@@H](C)O)NC1=O [3BP-4334] ({DOTA}-[X2]VYCE[dP]E(NH(4-Cl-benzyl))WLTWSC-NH2; linker 4-13 via mXylylene)	–	A (t1/2>15.0 minutes)	< 10 nM	10 to 79.4 nM
CC(C)C[C@@H]1NC(=O)[C@H](Cc2c[nH]c3ccccc23)NC(=O)[C@H](CCC(=O)Nc2ccc(S(N)(=O)=O)cc2)NC(=O)[C@H]2CCCN2C(=O)[C@H](CCC(=O)O)NC(=O)[C@@H](NC(=O)[C@H](Cc2ccc(O)cc2)NC(=O)[C@@H](NC(=O)CN2CCC(NC(=O)CN3CCN(CC(=O)O)CCN(CC(=O)O)CCN(CC(=O)O)CC3)CC2)C(C)C)CSCc2cccc(c2)CSC[C@@H](C(N)=O)NC(=O)[C@H](CO)NC(=O)[C@H](Cc2c[nH]c3ccccc23)NC(=O)[C@H]([C@@H](C)O)NC1=O [3BP-4442] ({DOTA}-[X2]VYCE[dP]E(X39)WLTWSC-NH2; linker 4-13 via mXylylene)	–	A (t1/2>15.0 minutes)	< 10 nM	10 to 79.4 nM
CC(C)C[C@@H]1NC(=O)[C@H](Cc2c[nH]c3ccccc23)NC(=O)[C@H](CC(=O)O)NC(=O)[C@H]2CCCN2C(=O)[C@H](CCC(=O)O)NC(=O)[C@@H](NC(=O)[C@H](CCCN(C)C)NC(=O)[C@@H](NC(=O)CN2CCC(NC(=O)CN3CCN(CC(=O)O)CCN(CC(=O)O)CCN(CC(=O)O)CC3)CC2)C(C)C)CSCc2cccc(c2)CSC[C@@H](C(N)=O)NC(=O)[C@H](CO)NC(=O)[C@H](Cc2c[nH]c3ccccc23)NC(=O)[C@H]([C@@H](C)O)NC1=O [3BP-4095] ({DOTA}-[X2]V[Orn(Me2)]CE[dP]DWLTWSC-NH2; linker 4-13 via mXylylene)	< 10 nM	B (t1/2 between 5.1 and 15.0 minutes)	< 10 nM	–
CC(C)C[C@@H]1NC(=O)[C@H](Cc2cccc(NC(=O)c3ccc(S(N)(=O)=O)s3)c2)NC(=O)[C@H](CC(=O)O)NC(=O)[C@H]2CCCN2C(=O)[C@H](CCC(=O)O)NC(=O)[C@@H](NC(=O)[C@H](Cc2ccc(O)cc2)NC(=O)[C@@H](NC(=O)CN2CCC(NC(=O)CN3CCN(CC(=O)O)CCN(CC(=O)O)CCN(CC(=O)O)CC3)CC2)C(C)C)CSCc2cccc(c2)CSC[C@@H](C(N)=O)NC(=O)[C@H](CO)NC(=O)[C@H](Cc2c[nH]c3ccccc23)NC(=O)[C@H]([C@@H](C)O)NC1=O [3BP-4413] ({DOTA}-[X2]VYCE[dP]D[X11]LTWSC-NH2; linker 4-13 via mXylylene)	–	A (t1/2>15.0 minutes)	< 10 nM	< 10 nM

The next lines start with the values.

IC50 [1, 3]	t1/2 category (activity) [2]	Kd [2]	IC50 [1, 4]	SMILES
< 10 nM	B (t1/2 between 5.1 and 15.0 minutes)	< 10 nM	–	CC(C)C[C@@H]1NC(=O)[C@H](Cc2cccc(NC(=O)c3cccc(NS(N)(=O)=O)n3)c2)NC(=O)[C@H](CC(=O)O)NC(=O)[C@H]2CCCN2C(=O)[C@H](CCC(=O)O)NC(=O)[C@@H](NC(=O)[C@H](CCC(N)=O)NC(=O)CN2CCN(C(=O)CN3CCN(CC(=O)O)CCN(CC(=O)O)CCN(CC(=O)O)CC3)CC2)CSCc2cccc(c2)CSC[C@@H](C(N)=O)NC(=O)[C@H](CO)NC(=O)[C@H](Cc2c[nH]c3ccccc23)NC(=O)[C@H]([C@@H](C)O)NC1=O [3BP-4514]
–	C (t1/2 between 2.1 and 5.0 minutes)	< 10 nM	10 to 79.4 nM	CC(C)C[C@@H]1NC(=O)[C@H](Cc2cccc(NC(=O)COCC(=O)O)c2)NC(=O)[C@H](CC(=O)O)NC(=O)[C@H]2CCCN2C(=O)[C@H](CCC(=O)O)NC(=O)[C@@H](NC(=O)[C@H](Cc2ccc(O)cc2)NC(=O)[C@@H](NC(=O)CN2CCC(NC(=O)CN3CCN(CC(=O)O)CCN(CC(=O)O)CCN(CC(=O)O)CC3)CC2)C(C)C)CSCc2cccc(c2)CSC[C@@H](C(N)=O)NC(=O)[C@H](CO)NC(=O)[C@H](Cc2c[nH]c3ccccc23)NC(=O)[C@H]([C@@H](C)O)NC1=O [3BP-4368] ({DOTA}-[X2]VYCE[dP]D[X15]LTWSC-NH2; linker 4-13 via mXylylene)
< 10 nM	A (t1/2>15.0 minutes)	< 10 nM	–	CC(C)C[C@@H]1NC(=O)[C@H](Cc2c[nH]c3ccccc23)NC(=O)[C@H](CC(=O)O)NC(=O)[C@H]2CCCN2C(=O)[C@H](CCC(=O)O)NC(=O)[C@@H]2CSCc3cccc(c3)CSC[C@@H](C(N)=O)NC(=O)[C@H](CNC(=O)CC[C@H](NC(=O)[C@@H](NC(=O)CN3CCC(NC(=O)CN4CCN(CC(=O)O)CCN(CC(=O)O)CCN(CC(=O)O)CC4)CC3)C(C)C)C(=O)N2)NC(=O)[C@H](Cc2c[nH]c3ccccc23)NC(=O)[C@H]([C@@H](C)O)NC1=O [3BP-4175] ({DOTA}-[X2]VECE[dP]DWLTW[Dap]C-NH2; lactam 3-12; linker 4-13 via mXylylene)
–	A (t1/2>15.0 minutes)	< 10 nM	< 10 nM	CC(C)C[C@@H]1NC(=O)[C@H](Cc2cccc(NC(=O)CCCS(N)(=O)=O)c2)NC(=O)[C@H](CC(=O)O)NC(=O)[C@H]2CCCN2C(=O)[C@H](CCC(=O)O)NC(=O)[C@@H]2CSCc3cccc(c3)CSC[C@@H](C(N)=O)NC(=O)[C@H](CNC(=O)C[C@H](NC(=O)[C@@H](NC(=O)CN3CCC(NC(=O)CN4CCN(CC(=O)O)CCN(CC(=O)O)CCN(CC(=O)O)CC4)CC3)C(C)C)C(=O)N2)NC(=O)[C@H](Cc2c[nH]c3ccccc23)NC(=O)[C@H]([C@@H](C)O)NC1=O [3BP-4445] ({DOTA}-[X2]VDCE[dP]D[Phe(3-NHCO(CH2)3SO2NH2)]LTW[Dap]C-NH2; lactam 3-12; linker 4-13 via mXylylene)
< 10 nM	A (t1/2>15.0 minutes)	< 10 nM	–	CC(C)C[C@@H]1NC(=O)[C@H](Cc2ccc(NC(=O)CCS(N)(=O)=O)cc2)NC(=O)[C@H](CC(=O)O)NC(=O)[C@H]2CCCN2C(=O)[C@H](CCC(=O)O)NC(=O)[C@@H]2CSCc3cccc(c3)CSC[C@@H](C(N)=O)NC(=O)[C@H](CNC(=O)CC[C@H](NC(=O)CN3CCN(CC(=O)O)CCN(CC(=O)O)CCN(CC(=O)O)CC3)C(=O)N2)NC(=O)[C@H](Cc2c[nH]c3ccccc23)NC(=O)[C@H]([C@@H](C)O)NC1=O [3BP-4505] ({DOTA}-ECE[dP]D[Phe(4-NH2)](Propanoyl(3-SO2NH2))LTW[Dap]C-NH2; lactam 1-10; linker 2-11 via mXylylene)
10 to 79.4 nM	A (t1/2>15.0 minutes)	< 10 nM	–	CC(C)C[C@@H]1NC(=O)[C@H](Cc2cccc(NC(=O)CCCS(N)(=O)=O)c2)NC(=O)[C@H](CC(=O)O)NC(=O)[C@H]2CCCN2C(=O)[C@H](CCC(=O)O)NC(=O)[C@@H]2CSCc3cccc(c3)CSC[C@@H](C(N)=O)NC(=O)[C@H](CNC(=O)C[C@H](NC(=O)CN3CCN(C(=O)CN4CCN(CC(=O)O)CCN(CC(=O)O)CCN(CC(=O)O)CC4)CC3)C(=O)N2)NC(=O)[C@H](Cc2c[nH]c3ccccc23)NC(=O)[C@H]([C@@H](C)O)NC1=O [3BP-4497] ({DOTA}-[X1]DCE[dP]D[Phe(3-NHCO(CH2)3SO2NH2)]LTW[Dap]C-NH2; lactam 2-11; linker 3-12 via mXylylene)
–	A (t1/2>15.0 minutes)	< 10 nM	10 to 79.4 nM	CC(C)C[C@@H]1NC(=O)[C@H](Cc2ccc(NC(=O)CCS(N)(=O)=O)cc2)NC(=O)[C@H](CC(=O)O)NC(=O)[C@H]2CCCN2C(=O)[C@H](CCC(=O)O)NC(=O)[C@@H]2CSCc3cccc(c3)CSC[C@@H](C(N)=O)NC(=O)[C@H](CNC(=O)C[C@H](NC(=O)CN3CCN(C(=O)CN4CCN(CC(=O)O)CCN(CC(=O)O)CCN(CC(=O)O)CC4)CC3)C(=O)N2)NC(=O)[C@H](Cc2c[nH]c3ccccc23)NC(=O)[C@H]([C@@H](C)O)NC1=O [3BP-4498] ({DOTA}-[X1]DCE[dP]D[Phe(4-NH2)](Propanoyl(3-SO2NH2))LTW[Dap]C-NH2; lactam 2-11; linker 3-12 via mXylylene)
